Experimental data: ChEMBL document CHEMBL1129706, “Z1046, a novel peripheral dopaminergic agent” (Bioorg Med Chem Lett, 1996)

What was measured:
[1] = biological target: D(1A) dopamine receptor (Homo sapiens) (UniProt P21728); conditions: Oryctolagus cuniculus
Description: Dopamine receptor D1 like evaluated for mesenteric blood flow increase in anesthetized rabbit

[2] = biological target: Adrenergic receptor alpha-2 (Homo sapiens) (UniProt P08913+P18825+P18089); conditions: Cavia porcellus; Cardiac atrium
Description: Alpha-2 adrenergic receptor activity in guinea pig right atrium

[3] = biological target: D(2) dopamine receptor (Homo sapiens) (UniProt P14416); conditions: Oryctolagus cuniculus; Artery
Chain of D(2) dopamine receptor (Homo sapiens) (P14416 whole entry): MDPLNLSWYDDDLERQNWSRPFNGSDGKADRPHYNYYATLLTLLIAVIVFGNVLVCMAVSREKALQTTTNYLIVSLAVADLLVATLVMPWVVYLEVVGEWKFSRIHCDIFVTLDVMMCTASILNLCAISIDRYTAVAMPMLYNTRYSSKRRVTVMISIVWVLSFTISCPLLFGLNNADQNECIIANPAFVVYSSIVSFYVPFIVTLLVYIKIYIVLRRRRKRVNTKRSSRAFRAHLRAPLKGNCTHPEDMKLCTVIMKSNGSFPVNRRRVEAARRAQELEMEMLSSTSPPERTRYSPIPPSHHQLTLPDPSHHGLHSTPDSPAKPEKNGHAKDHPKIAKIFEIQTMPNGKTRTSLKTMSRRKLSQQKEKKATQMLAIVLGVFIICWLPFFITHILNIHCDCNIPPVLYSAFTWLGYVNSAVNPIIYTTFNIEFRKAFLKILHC
Description: Activity at Dopamine receptor D2 in rabbit ear artery

[4] = biological target: T1, Adrenergic receptor alpha-1 (Homo sapiens, UniProt P35348+P25100+P35368); experiment: Activity at alpha-1 adrenergic receptor in rabbit aorta rings; type: tissue-based, Oryctolagus cuniculus; conditions: target entry is the homologue from another species
T1 sequence (P35348 whole entry): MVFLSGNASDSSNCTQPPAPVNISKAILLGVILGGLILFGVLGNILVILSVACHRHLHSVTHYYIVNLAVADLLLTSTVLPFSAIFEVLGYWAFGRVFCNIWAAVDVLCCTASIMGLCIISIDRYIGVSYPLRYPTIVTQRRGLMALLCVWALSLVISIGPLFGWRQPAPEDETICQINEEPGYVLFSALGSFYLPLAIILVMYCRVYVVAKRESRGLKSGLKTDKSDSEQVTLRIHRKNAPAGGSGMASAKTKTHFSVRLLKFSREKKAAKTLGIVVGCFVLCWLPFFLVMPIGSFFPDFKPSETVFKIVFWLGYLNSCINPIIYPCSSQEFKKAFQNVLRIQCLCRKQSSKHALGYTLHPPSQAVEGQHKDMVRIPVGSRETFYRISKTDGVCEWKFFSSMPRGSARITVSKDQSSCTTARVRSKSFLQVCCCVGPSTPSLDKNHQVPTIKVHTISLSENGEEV
T1 sequence (P25100 whole entry): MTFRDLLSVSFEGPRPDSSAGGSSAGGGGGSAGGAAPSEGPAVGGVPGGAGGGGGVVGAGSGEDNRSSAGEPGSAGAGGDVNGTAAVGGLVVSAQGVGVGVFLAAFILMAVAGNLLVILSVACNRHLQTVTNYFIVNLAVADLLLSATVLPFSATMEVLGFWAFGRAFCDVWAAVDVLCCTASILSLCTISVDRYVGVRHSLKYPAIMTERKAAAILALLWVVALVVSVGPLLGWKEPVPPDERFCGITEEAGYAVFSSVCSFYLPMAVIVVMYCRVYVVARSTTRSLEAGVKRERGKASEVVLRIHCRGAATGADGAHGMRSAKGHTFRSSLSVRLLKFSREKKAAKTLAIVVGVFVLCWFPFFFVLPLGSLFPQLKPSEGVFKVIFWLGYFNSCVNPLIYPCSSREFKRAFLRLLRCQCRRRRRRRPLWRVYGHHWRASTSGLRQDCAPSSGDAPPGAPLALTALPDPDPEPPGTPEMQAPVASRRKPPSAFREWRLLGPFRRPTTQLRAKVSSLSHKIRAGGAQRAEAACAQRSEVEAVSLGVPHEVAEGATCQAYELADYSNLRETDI
T1 sequence (P35368 whole entry): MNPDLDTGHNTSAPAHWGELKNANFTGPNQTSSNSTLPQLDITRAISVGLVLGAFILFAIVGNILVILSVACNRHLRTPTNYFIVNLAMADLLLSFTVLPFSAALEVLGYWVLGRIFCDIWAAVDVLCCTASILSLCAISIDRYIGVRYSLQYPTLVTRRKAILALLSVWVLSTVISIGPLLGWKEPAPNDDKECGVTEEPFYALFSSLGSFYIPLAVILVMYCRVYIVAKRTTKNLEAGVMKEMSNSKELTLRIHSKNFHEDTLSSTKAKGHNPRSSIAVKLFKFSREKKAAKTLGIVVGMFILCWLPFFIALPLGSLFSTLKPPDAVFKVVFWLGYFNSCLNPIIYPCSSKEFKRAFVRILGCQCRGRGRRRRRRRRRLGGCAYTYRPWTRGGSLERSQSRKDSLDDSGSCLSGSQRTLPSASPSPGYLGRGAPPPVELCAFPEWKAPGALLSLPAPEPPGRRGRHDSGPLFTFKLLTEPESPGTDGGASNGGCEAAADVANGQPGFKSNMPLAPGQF

[5] = biological target: Adrenergic receptor alpha-1 (Homo sapiens) (UniProt P35348+P25100+P35368); conditions: Oryctolagus cuniculus; Aorta

Chain of D(1A) dopamine receptor (Homo sapiens) (P21728 whole entry): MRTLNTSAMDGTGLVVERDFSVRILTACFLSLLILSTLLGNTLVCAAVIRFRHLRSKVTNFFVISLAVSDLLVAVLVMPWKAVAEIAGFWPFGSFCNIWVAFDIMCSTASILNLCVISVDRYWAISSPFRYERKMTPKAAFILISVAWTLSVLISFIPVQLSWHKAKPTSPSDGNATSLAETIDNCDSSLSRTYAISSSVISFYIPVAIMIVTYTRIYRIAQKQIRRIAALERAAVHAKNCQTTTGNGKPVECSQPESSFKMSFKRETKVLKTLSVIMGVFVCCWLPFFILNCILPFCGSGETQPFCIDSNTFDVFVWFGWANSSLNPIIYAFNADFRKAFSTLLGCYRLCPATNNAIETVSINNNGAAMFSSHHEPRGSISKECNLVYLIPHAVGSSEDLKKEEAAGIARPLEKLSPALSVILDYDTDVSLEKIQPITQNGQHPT

Row | Structure (SMILES) | ED20 [1] | pD2 [2] | pD2 [3] | pA2 [4] | pD2 [5]
1 | CCCN(CCCCCCCNCCOc1ccccc1OC)[C@H]1CCc2c(ccc(O)c2O)C1 | 35 nM/kg | 5.7 | 8.4 | 6.8 | 
2 | CCCN(CCCCCCN(CCC)[C@H]1CCc2c(ccc(O)c2O)C1)CCOc1ccccc1OC | 407 nM/kg | 6 | 7.4 | < 5 | 
3 | CCCN(CCCCCCNCCOc1ccccc1OC)CCc1ccc(O)c(O)c1 | > 3000 nM/kg | < 5 | 7.56 | 6.5 | 
4 | CCCN(CCCCCCNCCOc1ccccc1OC)[C@@H]1CCc2c(ccc(O)c2O)C1 | 1050 nM/kg | < 5 | 6.5 | 6.9 | 
5 | CCCN(CCCCCCNCCOc1ccccc1OC)[C@H]1CCc2c(ccc(O)c2O)C1 | 13 nM/kg | 6.7 | 9 | 6.5 | 
6 | CCCCN(CCCCCCNCCOc1ccccc1OC)[C@H]1CCc2c(ccc(O)c2O)C1 | 60 nM/kg | < 5 | 7.5 | 6.6 | 
7 | CNC[C@H](O)c1cccc(O)c1 |  |  |  |  | 6.5
8 | CCCN(CCCCCNCCOc1ccccc1OC)[C@H]1CCc2c(ccc(O)c2O)C1 | 107 nM/kg | 6.5 | 8.7 | 6.5 | 
9 | COc1ccccc1OCCNCCCCCCN[C@H]1CCc2c(ccc(O)c2O)C1 | > 3000 nM/kg | < 5 | 6.5 | 7.1 | 
10 | CCCN(CCCCCCN(C)CCOc1ccccc1OC)[C@H]1CCc2c(ccc(O)c2O)C1 | 34 nM/kg | 6.9 | 8.5 | < 5 | 
